Laboratory results: the supplement of paper PMC11208160

assay: recombinant barcode read abundance after kanamycin selection (control-corrected) (log10(CPM+1)); higher = more efficient recombination; sequences stand for … in AGTGCAGAGAAAATCGGCCAGTTTTCTCTGCCTGCAGTCCGCATGCCGT…AGATTTATGCAGCGGACTGCCTTTCTCCCAAAGTGATAAACCGGACAGTATCATGGACCGGTTTTCCCGGTAATCCGTATTTGCAAGGTTGGTTTCACT; site = the 11-nt target
Method: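 Pooled E. coli target-specificity screen for the IS621 bridge recombinase. Each library plasmid pairs an 11-nt target (CT core) with a bridge RNA whose target-binding loop (9-nt LTG + 4-nt RTG) is reprogrammed; the rest of the 177-nt WT IS621 bridge RNA scaffold is fixed. The plasmid is co-electroporated with a WT donor plasmid; recombinase is induced with 0.1 mM IPTG and recombinants are selected on kanamycin. Recombinant barcodes are sequenced, converted to CPM, averaged over two biological replicates and corrected by the unselected control CPM. Molecule = full bridge RNA written as DNA: LTG = specificity nt 1-9, RTG = reverse complement of specificity nt 8-11, in the WT scaffold.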
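Further: IS621 recombinase and bridge RNA in Escherichia coli cells.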

Row | Sequence | recombinant barcode read abundance (log10)
1 | AACCTTACTTGGGTTCTAACCTGTTGCCT (site AACCTTACTAG) | 0.631
2 | AACCTTACTTGGGTTCTAACCTGTTGCCT (site ACCCTTACTAG) | 0.122
3 | AACCTTACTTGGGTTCTAACCTGTTGCCT (site AGCCTTACTAG) | 0.0388
4 | AACCTTACTTGGGTTCTAACCTGTTGCCT (site ATCCTTACTAG) | 0.0245
5 | AACGAGTCTTGGGTTCTAACCTGTTGCCT (site AACGAGTCTAG) | 1.03
6 | AACGAGTCTTGGGTTCTAACCTGTTGCCT (site ACCGAGTCTAG) | 0.152
7 | AACGAGTCTTGGGTTCTAACCTGTTGCCT (site AGCGAGTCTAG) | 0.0187
8 | AACGAGTCTTGGGTTCTAACCTGTTGCCT (site ATCGAGTCTAG) | 0.244
9 | AACTAAACTTGGGTTCTAACCTGTTGCCT (site AACTAAACTAG) | 1.02
10 | AACTAAACTTGGGTTCTAACCTGTTGCCT (site AACTCAACTAG) | 0.0768
11 | AACTAAACTTGGGTTCTAACCTGTTGCCT (site AACTGAACTAG) | 0.181
12 | AACTAAACTTGGGTTCTAACCTGTTGCCT (site AACTTAACTAG) | 0.0783
13 | AACTATCCTTGGGTTCTAACCTGTTGCAT (site AACTATCCTAT) | 0.227
14 | AACTATCCTTGGGTTCTAACCTGTTGCAT (site AACTCTCCTAT) | 0.109
15 | AACTATCCTTGGGTTCTAACCTGTTGCAT (site AACTGTCCTAT) | 0.00638
16 | AACTATCCTTGGGTTCTAACCTGTTGCAT (site AACTTTCCTAT) | 0.196
17 | AAGACAACTTGGGTTCTAACCTGTTGCGG (site AAGACAACTCC) | 1.64
18 | AAGACAACTTGGGTTCTAACCTGTTGCGG (site TGCCTGCCTAG) | 0.042
19 | AAGACTCCTTGGGTTCTAACCTGTTGCCT (site AAGACTCCTAG) | 0.824
20 | AAGACTCCTTGGGTTCTAACCTGTTGCCT (site AAGTCTCCTAG) | 0.0612
21 | AAGAGCACTTGGGTTCTAACCTGTTGCCT (site AAGAGCACTAG) | 1.17
22 | AAGAGCACTTGGGTTCTAACCTGTTGCCT (site CAGAGCACTAG) | 0.0257
23 | AAGAGCACTTGGGTTCTAACCTGTTGCCT (site GAGAGCACTAG) | 0.0862
24 | AAGAGCACTTGGGTTCTAACCTGTTGCCT (site TAGAGCACTAG) | 0.315
25 | AAGATAGCTTGGGTTCTAACCTGTTGCCT (site AAGAAAGCTAG) | 0.192

Row | Sequence | recombinant barcode read abundance (log10)
26 | AAGATAGCTTGGGTTCTAACCTGTTGCCT (site AAGACAGCTAG) | 0.147
27 | AAGATAGCTTGGGTTCTAACCTGTTGCCT (site AAGAGAGCTAG) | 0.164
28 | AAGATAGCTTGGGTTCTAACCTGTTGCCT (site AAGATAGCTAG) | 1.59
29 | AAGCCCACTTGGGTTCTAACCTGTTGCGG (site AAGCCCACTCC) | 2.28
30 | AAGCCCACTTGGGTTCTAACCTGTTGCGG (site CGCGTTGCTAG) | 0.561
31 | AAGCCGCCTTGGGTTCTAACCTGTTGCTT (site AAGCCGCCTAA) | 0.906
32 | AAGCCGCCTTGGGTTCTAACCTGTTGCTT (site TCAATAGCTGT) | 0.35
33 | AAGCTCCCTTGGGTTCTAACCTGTTGCCT (site AAGCTCCCTAG) | 1.6
34 | AAGCTCCCTTGGGTTCTAACCTGTTGCCT (site ACACTCCCTAG) | 0.242
35 | AAGGCCGCTTGGGTTCTAACCTGTTGCCT (site AAGGACGCTAG) | 1.37
36 | AAGGCCGCTTGGGTTCTAACCTGTTGCCT (site AAGGCCGCTAG) | 1.79
37 | AAGGCCGCTTGGGTTCTAACCTGTTGCCT (site AAGGGCGCTAG) | 0.161
38 | AAGGCCGCTTGGGTTCTAACCTGTTGCCT (site AAGGTCGCTAG) | 0.259
39 | AAGGCGCCTTGGGTTCTAACCTGTTGCCT (site AAGGCGCCTAG) | 0.806
40 | AAGGCGCCTTGGGTTCTAACCTGTTGCCT (site ACGGCGCCTAG) | 0.11
41 | AAGGCGCCTTGGGTTCTAACCTGTTGCCT (site AGGGCGCCTAG) | 0.128
42 | AAGGCGCCTTGGGTTCTAACCTGTTGCCT (site ATGGCGCCTAG) | 0.135
43 | AAGGGCTCTTGGGTTCTAACCTGTTGCTT (site AAGGGCTCTAA) | 2.72
44 | AAGGGCTCTTGGGTTCTAACCTGTTGCTT (site GTCTCTCCTCT) | 0.129
45 | AAGGTCCCTTGGGTTCTAACCTGTTGCGG (site AAGGTCCCTCC) | 3.32
46 | AAGGTCCCTTGGGTTCTAACCTGTTGCGG (site TAGGTCCCTTC) | 0.0703
47 | AAGGTGTCTTGGGTTCTAACCTGTTGCCT (site AAAGTGTCTAG) | 1.97
48 | AAGGTGTCTTGGGTTCTAACCTGTTGCCT (site AACGTGTCTAG) | 0.736
49 | AAGGTGTCTTGGGTTCTAACCTGTTGCCT (site AAGGTGTCTAG) | 3.29
50 | AAGGTGTCTTGGGTTCTAACCTGTTGCCT (site AATGTGTCTAG) | 0.45

Row | Sequence | recombinant barcode read abundance (log10)
51 | AAGTCCACTTGGGTTCTAACCTGTTGCTT (site AAGTCCACTAA) | 0.856
52 | AAGTCCACTTGGGTTCTAACCTGTTGCTT (site TAGTCCACTTA) | 0.093
53 | AAGTGGTCTTGGGTTCTAACCTGTTGCTA (site AAGTGGTCTTA) | 1.46
54 | AAGTGGTCTTGGGTTCTAACCTGTTGCTA (site TGAGTCCCTCT) | 0
55 | AAGTTGTCTTGGGTTCTAACCTGTTGCGT (site AAGTTGTCTAC) | 2.77
56 | AAGTTGTCTTGGGTTCTAACCTGTTGCGT (site CAGTTGTCTAG) | 0.0897
57 | AATACCACTTGGGTTCTAACCTGTTGCCT (site AATACCACTAG) | 0.576
58 | AATACCACTTGGGTTCTAACCTGTTGCCT (site AATCGCACTAG) | 0.186
59 | AATAGGACTTGGGTTCTAACCTGTTGCGC (site AATAGGACTGC) | 1.76
60 | AATAGGACTTGGGTTCTAACCTGTTGCGC (site ATTAGGACTTC) | 0.0105
61 | AATATAGCTTGGGTTCTAACCTGTTGCTA (site AATATAGCTTA) | 0.0685
62 | AATATAGCTTGGGTTCTAACCTGTTGCTA (site TTCCCCACTAG) | 0
63 | AATCGAGCTTGGGTTCTAACCTGTTGCGG (site AATCGAGCTCC) | 1.82
64 | AATCGAGCTTGGGTTCTAACCTGTTGCGG (site TCCGCTTCTAA) | 0.0864
65 | AATCTCCCTTGGGTTCTAACCTGTTGCCT (site AATATGCCTAG) | 0.298
66 | AATCTCCCTTGGGTTCTAACCTGTTGCCT (site AATCTCCCTAG) | 1.07
67 | AATGAATCTTGGGTTCTAACCTGTTGCCT (site AATGAATCTAG) | 0.312
68 | AATGAATCTTGGGTTCTAACCTGTTGCCT (site AATGCATCTAG) | 0.255
69 | AATGAATCTTGGGTTCTAACCTGTTGCCT (site AATGGATCTAG) | 0.53
70 | AATGAATCTTGGGTTCTAACCTGTTGCCT (site AATGTATCTAG) | 0.301
71 | AATGGGCCTTGGGTTCTAACCTGTTGCCT (site AATGGGACTAG) | 0.131
72 | AATGGGCCTTGGGTTCTAACCTGTTGCCT (site AATGGGCCTAG) | 0.273
73 | AATGGGCCTTGGGTTCTAACCTGTTGCCT (site AATGGGGCTAG) | 0.179
